One experiment deals with VEGFA (786-O cells). Description: VEGFA ELISA Assay (IC50). The format is cell-based. To be noted: VEGFA in culture supernatant by ELISA. On the procedure: 786-O cells in exponential growth phase were seeded in 96-well plate, the cell concentration was 65,000 cells per milliliter of culture medium, 180 ul per well. Compounds were serial diluted to the indicated concentration, and 20 ul compound solutions of different concentrations were added to the corresponding cell wells. The final compound concentrations were as follows (nM): 1.5, 4.6, 13.7, 41.2, 123.5, 370.4, 1111.1, 3333.3, 10000. After 24 hours of incubation, the cell culture supernatant was taken, and the VEGFA concentration was determined using an ELISA kit (purchased from abcam). Finally, the reaction was terminated, and the light absorbance value of each well was measured using a microplate reader at a wavelength of […], and IC50 was calculated by GraphPad Prism. Cell Titer-Glo reagent was used to measure cell viability.
A general note: In an ELISA, binding on a coated surface is turned into a signal by an enzyme label.

Experiment [1] deals with HIF2α reporter cells (786-O-HIF2α-Luc cells). Description: Luciferase Assay (HIF2α reporter cells). To be noted: 18-20 h, Steady-Glo luminescence. Type of experiment: cell-based. On the procedure:
Luciferase LUC gene was transfected into 786-O cells (purchased from ATCC) using Lipofectamine 3000 Transfection Reagent (purchased from Invitrogen) to construct HIF2α reporter cells (786-O-HIF2α-Luc cells). Experiments were performed when 786-O-HIF2α-Luc cells were in logarithmic growth phase, culture medium (RPMI MEDIUM 1640, purchased from Invitrogen) was abandoned, the cells were rinsed with PBS three times; trypsin (TrypLE, purchased from invitrogen) was added to digest cells, the digestion was terminated by washing the cells with culture medium, 10% fetal bovine serum, 1% penicillin and streptomycin. The cells were collected by centrifugation, rinsed twice with PBS to remove the phenol red in the medium, and then resuspended the cells to an appropriate concentration, and detected the cell density and viability, and made sure the cell viability is above 90% before it can be used for experiments.
The gradient concentration compound was transferred into 384-well plate, 25 nl/well using Echo 550 (non-contact sonic pipetting system, purchased from Labcyte); the cells were seeded in 384-well plate, 4500 cells/well, with 25 μl of culture medium, to make the final concentrations as follows: 10000, 3333, 1111, 370, 123, 41.1, 13.7, 4.6, 1.5, 0.5 nM. Cells were incubated at 37° C., 5% CO2 for 18-20 h; Steady-Glo™ Luciferase Assay System (purchased from Promega) was added to 384 well-plate, 25 μl/well; the luminescence value was detected with Envision. The % inhibition rate was calculated according to the RLU (Record Luminescence) signal value of each well, and then the IC50 of the corresponding compound was calculated by Graphpad 8.0.

The mark [2] stands for this setting: Homo sapiens, 786-0, 24 h, 24 hours incubation, numeric values.
Setting [3] is: Homo sapiens, 786-0, 24 h, 24 hours incubation, class symbols.

Each structure is given as a SMILES string.

On to `O[C@H]1c2c(C(F)(F)F)cn(-c3ccc(F)c(C(F)F)c3)c2CC[C@H]1F` (single isomer, unassigned) [Example 104], for which the figures for the IC50 (in the experiment on VEGFA (786-O cells) (setting [2]); in experiment [1] (numeric values)) were 6.2 nM and 22 nM, respectively.
Regarding `N#Cc1cc(-n2cc(C(F)(F)F)c3c2CCC(F)(F)[C@H]3F)ccc1F` (single isomer, unassigned) [Example 196], the IC50 (in the experiment with VEGFA (786-O cells) (setting [3]); in experiment [1] (class symbols)) was at most 500 nM each time.
As to `OC1c2c(C(F)(F)F)cn(-c3cc(F)cc(Cl)c3)c2CCC1(F)F` (stereo not drawn) [Example 7, 1-(3-chloro-5-fluorophenyl)-5,5-difluoro-3-(trifluoromethyl)-4,5,6,7-tetrahydro-1H-indol-4-ol], the values for the IC50 (in the experiment on VEGFA (786-O cells) (setting [2]); in experiment [1] (numeric values)) were 30.7 nM and 57.7 nM, respectively.
Turning to `N#Cc1cc(F)cc(-n2cc(C(F)(F)F)c3c2CCC(F)(F)C3O)c1` (stereo not drawn) [Example 12, 3-(5,5-difluoro-4-hydroxy-3-(trifluoromethyl)-4,5,6,7-tetrahydro-1H-indol-1-yl)-5-fluorobenzonitrile], the IC50 with VEGFA (786-O cells) (setting [2]) was 67.5 nM; in experiment [1] (class symbols), at most 500 nM.
For the compound `OC1c2c(C(F)(F)F)cn(-c3cccc(Cl)c3)c2CCC1(F)F` (stereo not drawn) [Example 15, l-(3-chlorophenyl)-5,5-difluoro-3-(trifluoromethyl)-4,5,6,7-tetrahydro-1H-indol-4-ol], the IC50 is 18.8 nM with VEGFA (786-O cells) (setting [2]) and at most 500 nM in experiment [1] (class symbols).
As for `N#Cc1cccc(-n2cc(C(F)(F)F)c3c2CCC(F)(F)C3O)c1` (stereo not drawn) [Example 19, 3-(5,5-difluoro-4-hydroxy-3-(trifluoromethyl)-4,5,6,7-tetrahydro-1H-indol-1-yl)benzonitrile], the IC50 (with VEGFA (786-O cells) (setting [3]); in experiment [1] (class symbols)) was at most 500 nM in each case.
As to `OC1c2c(C(F)(F)F)cn(-c3cc(Cl)cc(Cl)c3)c2CCC1(F)F` (stereo not drawn) [Example 20, 1-(3,5-dichlorophenyl)-5,5-difluoro-3-(trifluoromethyl)-4,5,6,7-tetrahydro-1H-indol-4-ol], the IC50 (in the experiment with VEGFA (786-O cells) (setting [3]); in experiment [1] (class symbols)) was at most 500 nM throughout.
Turning to `OC1CCCc2c1c(C(F)(F)F)cn2-c1cc(F)cc(F)c1` (stereo not drawn) [Example 37, 1-(3,5-difluorophenyl)-3-(trifluoromethyl)-4,5,6,7-tetrahydro-1H-indol-4-ol], the IC50 (with VEGFA (786-O cells) (setting [3]); in experiment [1] (class symbols)) was at most 500 nM each time.
Consider `O[C@H]1c2c(-c3cccs3)cn(-c3cc(F)cc(Cl)c3)c2CCC1(F)F` [Example 48, (S)-1-(3-chloro-5-fluorophenyl)-5,5-difluoro-3-(thiophen-2-yl)-4,5,6,7-tetrahydro-1H-indol-4-ol], for which the figures for the IC50 (in the experiment on VEGFA (786-O cells) (setting [2]); in experiment [1] (class symbols)) were 45.6 nM and at most 500 nM, respectively.
On to `O[C@H]1c2c(C(F)(F)F)cn(-c3cc(F)cc(F)c3)c2CCC1(F)F` [Example 64, (S)-1-(3,5-difluorophenyl)-5,5-difluoro-3-(trifluoromethyl)-4,5,6,7-tetrahydro-1H-indol-4-ol], for which the IC50 (in the experiment with VEGFA (786-O cells) (setting [3]); in experiment [1] (class symbols)) was at most 500 nM in each case.
Consider `N#Cc1cc(-c2cc(C(F)(F)F)c3n2CCC(F)(F)C3O)ccc1F` (stereo not drawn) [Example 69, 5-(7,7-difluoro-8-hydroxyl-1-(trifluoromethyl)-5,6,7,8-tetrahydroindolizin-3-yl)-2-fluorobenzonitrile], for which the IC50 amounted to 44.2 nM in the experiment on VEGFA (786-O cells) (setting [2]) and 67 nM in experiment [1] (numeric values).
Take `N#Cc1cc(-c2cc(C(F)(F)F)c3n2CCC(F)(F)[C@H]3O)ccc1F` [Example 70, (S)-5-(7,7-difluoro-8-hydroxyl-1-(trifluoromethyl)-5,6,7,8-tetrahydroindolizin-3-yl)-2-fluorobenzonitrile]: the IC50 is 45.4 nM with VEGFA (786-O cells) (setting [2]) and 84.2 nM in experiment [1] (numeric values).
`N#Cc1cc(-c2cc(C(F)(F)F)c3n2CCC(F)C3O)ccc1F` (stereo not drawn) [Example 75, 2-fluoro-5-(7-fluoro-8-hydroxy-1-(trifluoromethyl)-5,6,7,8-tetrahydroindolizin-3-yl)benzonitrile]: the IC50 (in the experiment with VEGFA (786-O cells) (setting [3]); in experiment [1] (class symbols)) was at most 500 nM each time.
For `N#Cc1cc(-n2cc(C(F)(F)F)c3c2CCC(F)(F)[C@H]3O)ccc1F` [Example 95], the IC50 worked out at 14.5 nM with VEGFA (786-O cells) (24 hours incubation, numeric values) and 37.6 nM in experiment [1] (numeric values).
Consider `OC1c2c(C(F)(F)F)c(F)n(-c3cc(F)cc(Cl)c3)c2CCC1(F)F` (stereo not drawn) [Example 106, 1-(3-chloro-5-fluorophenyl)-2,5,5-trifluoro-3-(trifluoromethyl)-4,5,6,7-tetrahydro-1H-indol-4-ol], for which the IC50 (in the experiment on VEGFA (786-O cells) (setting [3]); in experiment [1] (class symbols)) was at most 500 nM throughout.
Turning to `O[C@H]1c2c(C(F)(F)F)cn(-c3cc(F)cc(Cl)c3)c2CCC1(F)F` [Example 116, (S)-1-(3-chloro-5-fluorophenyl)-5,5-difluoro-3-(trifluoromethyl)-4,5,6,7-tetrahydro-1H-indol-4-ol], the results for the IC50 (in the experiment with VEGFA (786-O cells) (setting [2]); in experiment [1] (numeric values)) were 27.7 nM and 53.2 nM, respectively.
For `OC1c2c(C(F)(F)F)cn(-c3ccc(F)c(Cl)c3)c2CCC1(F)F` (stereo not drawn) [Example 120, 1-(3-chloro-4-fluorophenyl)-5,5-difluoro-3-(trifluoromethyl)-4,5,6,7-tetrahydro-1H-indol-4-ol], in that order: 38.9 nM and 75.7 nM.
As to `N#Cc1cc(-n2cc(C(F)(F)F)c3c2CCC(F)(F)C3O)ccc1F` (stereo not drawn) [Example 121], the IC50 was found to be 31 nM with VEGFA (786-O cells) (setting [2]) and 98.5 nM in experiment [1] (numeric values).
With `N#Cc1ccc(-n2cc(C(F)(F)F)c3c2CCC(F)(F)C3O)cc1Cl` (stereo not drawn) [Example 124, 2-chloro-4-(5,5-difluoro-4-hydroxy-3-(trifluoromethyl)-4,5,6,7-tetrahydro-1H-indol-1-yl)benzonitrile], the IC50 was 8.5 nM with VEGFA (786-O cells) (Homo sapiens, 786-0, 24 hours incubation, numeric values) and at most 500 nM in experiment [1] (class symbols).
With `CC1Cc2c(c(C(F)(F)F)cn2-c2ccc(F)c(C#N)c2)C(O)C1(F)F` (stereo not drawn) [Example 179, 5-(5,5-difluoro-4-hydroxy-6-methyl-3-(trifluoromethyl)-4,5,6,7-tetrahydro-1H-indol-1-yl)-2-fluorobenzonitrile], in the experiment on VEGFA (786-O cells) (setting [3]), the IC50 is 500 to 1500 nM.
`CC1Cc2c(c(C(F)(F)F)cn2-c2ccc(F)c(C#N)c2)[C@H](O)C1(F)F` (stereo partly drawn) [Example 180]: the IC50 in the experiment on VEGFA (786-O cells) (setting [3]) is 500 to 1500 nM.
In turn, `OC1c2c(C(F)(F)F)cn(/C=C/c3ccccc3)c2CCC1(F)F` (stereo not drawn) [Example 181, (E)-5,5-difluoro-1-styryl-3-(trifluoromethyl)-4,5,6,7-tetrahydro-1H-indol-4-ol] displayed an IC50 in the experiment with VEGFA (786-O cells) (setting [3]) of 1500 to 10000 nM.
`O=C1c2c(C(F)(F)F)cn(-c3ccc(F)c(C(F)F)c3)c2CCC1(F)F` [Example 190, 1-(3-(difluoromethyl)-4-fluorophenyl)-5,5-difluoro-3-(trifluoromethyl)-1,5,6,7-tetrahydro-4H-indol-4-one] displayed an IC50 in the experiment on VEGFA (786-O cells) (setting [3]) of 500 to 1500 nM.
On the same count and under the same terms, next, `CS(=O)(=O)c1cn(-c2cc(F)cc(C#N)c2)c2c1C(O)C(F)CC2` (stereo not drawn) [Example 193, 3-fluoro-5-(5-fluoro-4-hydroxy-3-(methylsulfonyl)-4,5,6,7-tetrahydro-1H-indol-1-yl)benzonitrile]: at most 500 nM.
Regarding `Fc1cc(Cl)cc(-n2cc(C(F)(F)F)c3c2CCc2cnoc2-3)c1` [Example 201, 6-(3-chloro-5-fluorophenyl)-8-(trifluoromethyl)-5,6-dihydro-4-H-isoxazolo[5,4-e]indole], the IC50 in the experiment on VEGFA (786-O cells) (24 hours incubation, class symbols) was above 1500 nM.
For `Fc1cc(Cl)cc(-n2cc(C(F)(F)F)c3c2CCc2cn[nH]c2-3)c1` [Example 202, 6-(3-chloro-5-fluorophenyl)-8-(trifluoromethyl)-1,4,5,6-tetrahydropyrrolo-[2,3-g]indazole], in the experiment on VEGFA (786-O cells) (setting [3]), the IC50 was above 1500 nM.

For orientation: IC50 means the concentration at which inhibition is half-maximal. The low end stands for higher potency, the high end for lower potency.

The record behind these values is patent US20230219890A1, “BICYCLIC COMPOUNDS AND USE THEREOF” (Betta Pharmaceuticals Co.,Ltd, priority 2020, published 2023).
